Source: patent US9353090B2, “Heterocyclic carboxylic acids as activators of soluble guanylate cyclase” (Boehringer Ingelheim International GmbH, priority 2014, dated 2016)
Values after ≈ are worked out from the molar mass of the structure shown.

Key:
[1] = molecular target: human soluble guanylate cyclase alpha 1 and beta 1 subunits (sGC) (Homo sapiens (Human), UniProt Q02108+Q02153); test: sGC cellular activator assay (cGMP, HTRF), in the presence and absence of 50% human serum; assay type: cell-based; conditions: CHO cells stably expressing human sGC alpha 1/beta 1, preincubated with 40 microM ODQ; cGMP by HTRF; Table 2 does not state whether with or without 50% human serum
Procedure: The sGC cellular activator assay is performed in the presence and absence of 50% human serum (HS) using Chinese hamster ovary cells that have been stably transfected to express the human soluble guanylate cyclase alpha 1 and beta 1 subunits (sGC). Cells are preincubated with 40 microM 1H-[1,2,4]oxadiazolo[4,3-a]quinoxalin-1-one (ODQ), an sGC inhibitor, for one h in buffer containing 0.1% bovine serum albumin and 3-isobutyl-1-methylxanthine (IBMX). Concentration response curves are prepared for test compounds in DMSO. An intermediate dilution of the compounds is performed in either buffer containing IBMX or type AB HS containing IBMX. Diluted compounds are added to cells and they are incubated at room temperature for thirty min. cGMP is measured using a CisBio homogeneous time resolved fluorescence kit and the EC50 is calculated for each compound.
Representative compounds of the present invention were tested for activity the above assay. Preferred compounds have an EC50 of <1,000 nM in the above assay and more preferred compounds have an EC50<200 nM.

[2] = Human liver microsome (HLM) metabolic stability assay; assay type: in vitro ADME; conditions: human liver microsomes
Procedure: The 5 time point, high-throughput human liver microsome (HLM) metabolic stability assay is designed to determine in vitro compound metabolism. Compounds are incubated with HLMs at a concentration of 1 uM, at 37° C., for a total of 60 min. The percent of compound remaining at 5, 15, 30, and 60 min is used to calculate the t1/2 (min), CLint (mL/min/kg), CLh (mL/min/kg), and % Qh. The assay is based on a 96-well format and can accommodate up to 92 compounds per plate (n=1).
Using the 96-well multi-channel head, the Biomek FX, equipped with a Peltier heating block/shaker, is programmed to accomplish the following steps: • 1. Pipette 175 uL of 1.15 mg/mL microsomes into each of the 96 conical inserts (Analytical Sales and Products, catalog number 96PL05) that fit into the plate of the Peltier heating block/shaker (the incubation plate) • 2. Add 5 uL of compounds from the assay plate to the microsomes and shake the mixture at 600 rpm at 42.1° C. for 10 min (a setting of 42.1° C. on the Peltier is required for the samples to incubate at 37° C.) • 3. After 10 min, prompt the user to add the NADPH plate to the deck and add 20 uL from the NADPH plate to the incubation plate to start the reaction • 4. Add 215 uL of 100%, cold acetonitrile containing an internal standard(s) to a 0 minute, 5 minute, 15 minute, 30 minute, and 60 minute “quench” plate • 5. At 0 min, 5 min, 15 min, 30 min, and 60 min into the incubation, aspirate 12 uL from the incubation mixture and add it to the quench solution to stop the reaction • 6. Add 185 uL HPLC grade water to each well of the 0, 5, 15, 30 and 60 minute quench plates to dilute compounds to the appropriate concentration for the mass spectrometer
After all time points are collected, the quench plates are sealed with 96-well pierceable plate mats or heat sealing foil and centrifuged at 3000 rpm for 15 min to pellet the microsomes.
The plates are analyzed using LC/MS/MS with electron spray ionization (ESI) and the previously determined MRM transitions. The LC method includes the following parameters:
Using an Excel template in Activitybase, the peak areas corresponding to 5, 15, 30 and 60 min are compared to the peak area at 0 min to calculate the percent of remaining compound using the following equation:
Percent compound remaining=(AUC at Time t min/AUC at Time 0 min)×100 where t=0, 5, 15, 30 or 60 min.
Time (min) is plotted against the natural logarithm (Ln) of the percent compound remaining to determine the slope. The slope is used to calculate t1/2 (min) using the equation, t1/2=0.693/slope.
Clh, Hepatic clearance • Hepatic flow*f(u)*Clint/(hepatic flow+f(u)*Clint)
Qh, % Hepatic blood flow • (Clh/Hepatic flow)*100
Preferred compounds have % Qh values of less than 24.

physchem = conditions: kinetic from dmso stock
[3] = pH 2.2, aqueous buffer, Solubility (pH 2.2)
[4] = pH 4.5, aqueous buffer, Solubility (pH 4.5)
[5] = pH 6.8, aqueous buffer, Solubility (pH 6.8)

human soluble guanylate cyclase alpha 1 and beta 1 subunits (sGC), sequence (Q02108 whole entry partner): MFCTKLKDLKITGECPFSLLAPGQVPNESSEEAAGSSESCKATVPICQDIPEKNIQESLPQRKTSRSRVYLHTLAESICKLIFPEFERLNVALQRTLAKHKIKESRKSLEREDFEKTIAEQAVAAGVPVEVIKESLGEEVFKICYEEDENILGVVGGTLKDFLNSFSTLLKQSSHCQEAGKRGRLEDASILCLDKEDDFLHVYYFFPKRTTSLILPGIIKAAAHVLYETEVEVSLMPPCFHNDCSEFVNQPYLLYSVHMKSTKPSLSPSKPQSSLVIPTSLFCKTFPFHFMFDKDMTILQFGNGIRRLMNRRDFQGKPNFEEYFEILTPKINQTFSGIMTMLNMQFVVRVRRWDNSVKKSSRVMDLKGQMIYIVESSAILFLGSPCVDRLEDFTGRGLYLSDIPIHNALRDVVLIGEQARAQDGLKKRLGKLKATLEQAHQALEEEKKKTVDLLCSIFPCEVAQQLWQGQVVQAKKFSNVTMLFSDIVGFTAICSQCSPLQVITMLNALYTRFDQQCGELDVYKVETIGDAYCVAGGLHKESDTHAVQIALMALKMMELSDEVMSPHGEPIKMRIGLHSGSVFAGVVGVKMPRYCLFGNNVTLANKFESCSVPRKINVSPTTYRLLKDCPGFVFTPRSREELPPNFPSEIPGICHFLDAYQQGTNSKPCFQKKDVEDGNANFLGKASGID
human soluble guanylate cyclase alpha 1 and beta 1 subunits (sGC), sequence (Q02153 whole entry): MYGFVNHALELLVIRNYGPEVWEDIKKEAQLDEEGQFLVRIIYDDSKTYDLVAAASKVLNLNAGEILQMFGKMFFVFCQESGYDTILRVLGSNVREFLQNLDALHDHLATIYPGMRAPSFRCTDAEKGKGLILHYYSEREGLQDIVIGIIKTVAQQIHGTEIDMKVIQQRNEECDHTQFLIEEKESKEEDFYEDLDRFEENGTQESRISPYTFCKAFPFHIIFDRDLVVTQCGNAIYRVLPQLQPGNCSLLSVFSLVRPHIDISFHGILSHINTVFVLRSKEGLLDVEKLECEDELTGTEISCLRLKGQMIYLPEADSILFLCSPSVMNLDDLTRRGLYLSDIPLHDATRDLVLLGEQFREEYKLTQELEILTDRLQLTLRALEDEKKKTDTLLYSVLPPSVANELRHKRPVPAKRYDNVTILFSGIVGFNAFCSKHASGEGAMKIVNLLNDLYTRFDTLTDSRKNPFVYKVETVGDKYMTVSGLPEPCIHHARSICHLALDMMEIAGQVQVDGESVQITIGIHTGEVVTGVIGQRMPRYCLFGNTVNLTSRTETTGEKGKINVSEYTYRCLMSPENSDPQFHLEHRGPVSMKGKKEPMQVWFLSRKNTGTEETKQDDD

SMILES	EC50 [1]	Metabolic stability (Qh %), % hepatic blood flow [2]	solubility at 24 h (physchem; [3])	solubility at 24 h (physchem; [4])	solubility at 24 h (physchem; [5])
Cc1c(COc2ccccc2-c2cccc(N3CC[C@@]4(C(=O)O)C[C@H]4C3)n2)ccc2c1CCN([C@@H]1CCOC1)C2 [Compound 8]	12 nM	49%	150 µg/mL (≈ 278 µM)	110 µg/mL (≈ 204 µM)	44 µg/mL (≈ 81.5 µM)
Cc1c(COc2ccccc2-c2cccc(N3CC[C@@]4(C(=O)O)C[C@H]4C3)n2)ccc2c1CCN(C[C@H]1COCCO1)C2 [Compound 9]	1 nM	37%	130 µg/mL (≈ 228 µM)	110 µg/mL (≈ 193 µM)	53 µg/mL (≈ 93 µM)
Cc1c(COc2ccccc2-c2cccc(N3CC[C@@]4(C(=O)O)C[C@H]4C3)n2)ccc2c1CCN(C[C@@H]1COCCO1)C2 [Compound 10]	9 nM	32%	130 µg/mL (≈ 228 µM)	110 µg/mL (≈ 193 µM)	55 µg/mL (≈ 96.5 µM)
Cc1c(COc2ccccc2-c2cccc(N3CC[C@@]4(C(=O)O)C[C@H]4C3)n2)ccc2c1CCN([C@H]1CCCOC1)C2 [Compound 11]	4 nM	53%	140 µg/mL (≈ 253 µM)	110 µg/mL (≈ 199 µM)	46 µg/mL (≈ 83.1 µM)
Cc1cc(COc2ccccc2-c2cccc(N3CC[C@@]4(C(=O)O)C[C@H]4C3)n2)cc2c1CN(C1CCOCC1)CC2 [Compound 12]	12 nM	<24%	110 µg/mL (≈ 199 µM)	90 µg/mL (≈ 163 µM)	33 µg/mL (≈ 59.6 µM)
Cc1cccc(-c2cccc(N3CC[C@@]4(C(=O)O)C[C@H]4C3)n2)c1OCc1ccc2c(c1)CCN(C1CCOCC1)C2 [Compound 13]	6 nM	42%	140 µg/mL (≈ 253 µM)	120 µg/mL (≈ 217 µM)	71 µg/mL (≈ 128 µM)
Cc1cccc(-c2cccc(N3CC[C@@]4(C(=O)O)C[C@H]4C3)n2)c1OCc1ccc2c(c1C)CCN(C1CCOCC1)C2 [Compound 14]	3 nM	61%	120 µg/mL (≈ 211 µM)	94 µg/mL (≈ 166 µM)	53 µg/mL (≈ 93.4 µM)
Cc1cc(COc2c(C)cccc2-c2cccc(N3CC[C@@]4(C(=O)O)C[C@H]4C3)n2)cc2c1CN(C1CCOCC1)CC2 [Compound 15]	2 nM	51%	110 µg/mL (≈ 194 µM)	90 µg/mL (≈ 159 µM)	51 µg/mL (≈ 89.8 µM)
Cc1ccc(OCc2ccc3c(c2)CCN(C2CCOCC2)C3)c(-c2cccc(N3CC[C@@]4(C(=O)O)C[C@H]4C3)n2)c1 [Compound 16]	8 nM	28%	130 µg/mL (≈ 235 µM)	96 µg/mL (≈ 173 µM)	41 µg/mL (≈ 74 µM)
Cc1ccc(OCc2ccc3c(c2)CCN(C2COC2)C3)c(-c2cccc(N3CC[C@@]4(C(=O)O)C[C@H]4C3)n2)c1 [Compound 17]	22 nM	33%	100 µg/mL (≈ 190 µM)	83 µg/mL (≈ 158 µM)	39 µg/mL (≈ 74.2 µM)
Cc1ccc(OCc2ccc3c(c2C)CCN(C2CCOCC2)C3)c(-c2cccc(N3CC[C@@]4(C(=O)O)C[C@H]4C3)n2)c1 [Compound 18]	2 nM	34%	130 µg/mL (≈ 229 µM)	99 µg/mL (≈ 174 µM)	38 µg/mL (≈ 66.9 µM)
Cc1ccc(OCc2ccc3c(c2C)CCN(C2COC2)C3)c(-c2cccc(N3CC[C@@]4(C(=O)O)C[C@H]4C3)n2)c1 [Compound 19]	8 nM	63%	110 µg/mL (≈ 204 µM)	82 µg/mL (≈ 152 µM)	32 µg/mL (≈ 59.3 µM)
Cc1cccc(-c2cccc(N3C[C@@H]4C[C@]4(C(=O)O)C3)n2)c1OCc1ccc2c(c1)CCN(C1CCOCC1)C2 [Compound 20]	21 nM	<24%	110 µg/mL (≈ 204 µM)	96 µg/mL (≈ 178 µM)	64 µg/mL (≈ 119 µM)
Cc1cccc(-c2cccc(N3C[C@@H]4C[C@]4(C(=O)O)C3)n2)c1OCc1ccc2c(c1C)CCN(C1CCOCC1)C2 [Compound 21]	11 nM	<24%	120 µg/mL (≈ 217 µM)	110 µg/mL (≈ 199 µM)	70 µg/mL (≈ 126 µM)
Cc1cc(COc2c(C)cccc2-c2cccc(N3C[C@@H]4C[C@]4(C(=O)O)C3)n2)cc2c1CN(C1CCOCC1)CC2 [Compound 22]	6 nM	<24%	110 µg/mL (≈ 199 µM)	90 µg/mL (≈ 163 µM)	60 µg/mL (≈ 108 µM)
Cc1cc(COc2c(C)cccc2-c2cccc(N3C[C@@H]4C[C@]4(C(=O)O)C3)n2)cc2c1CN(C1COC1)CC2 [Compound 23]	6 nM	<24%	100 µg/mL (≈ 190 µM)	88 µg/mL (≈ 167 µM)	69 µg/mL (≈ 131 µM)
Cc1cc(COc2c(C)cccc2-c2cccc(N3C[C@@H]4C[C@]4(C(=O)O)C3)n2)cc2c1CN(C1CCOC1)CC2 (stereo partly shown) [Compound 24]	6 nM	<24%	110 µg/mL (≈ 204 µM)	98 µg/mL (≈ 182 µM)	69 µg/mL (≈ 128 µM)
COc1cc(COc2c(C)cccc2-c2cccc(N3C[C@@H]4C[C@]4(C(=O)O)C3)n2)cc2c1CN(C1CCOCC1)CC2 [Compound 27]	16 nM	<24%	110 µg/mL (≈ 193 µM)	95 µg/mL (≈ 167 µM)	68 µg/mL (≈ 119 µM)
COc1cc(COc2c(C)cccc2-c2cccc(N3C[C@@H]4C[C@]4(C(=O)O)C3)n2)cc2c1CN(C1COC1)CC2 [Compound 28]	19 nM	<24%	110 µg/mL (≈ 203 µM)	90 µg/mL (≈ 166 µM)	73 µg/mL (≈ 135 µM)
Cc1cccc(-c2cccc(N3C[C@@H]4C[C@]4(C(=O)O)C3)n2)c1OCc1cc(C#N)c2c(c1)CCN(C1COC1)C2 [Compound 29]	18 nM	<24%	110 µg/mL (≈ 205 µM)	76 µg/mL (≈ 142 µM)	79 µg/mL (≈ 147 µM)
